Experimental data from patent publication US4816474A, “Amino substituted thienothiopyran derivatives, composition containing them, and method of using them to stimulate presynaptic dopamine receptors” (Ciba-Geigy Corporation, priority 1987, dated 1989).
Structures can show the parent of a compound that is named as a salt.

Assays:
[1] = system: presynaptic dopamine receptor (dopamine autoreceptor); test: GBL model in the rat: in-vivo presynaptic dopamine agonist (dopamine autoreceptor agonist) activity, inhibition of GBL-induced DOPA accumulation; details: dose inhibiting DOPA accumulation by 50%
Experimental: The in-vivo presynaptic dopamine agonist activity (also called dopamine autoreceptor agonist activity) is determined in the rat gamma-butyrolactone (GBL) model by a modification of the procedure described by Walters and Roth, Naunyn Schmiedeberg's Arch. Pharmacol. 296, 5 (1976). In this model, a presynaptic dopamine agonist inhibits the GBL-induced accumulation of the dopamine precursor DOPA in the brain after pretreatment with 3-hydroxybenzylhydrazine (NDS-1015), a DOPA decarboxylase inhibitor.
Test compounds are dissolved in 0.9% saline, with sodium metabisulfite to prevent oxidation, if required. Animals are treated with i.p. injections of solutions of test compounds or saline, followed by gamma-butyrolactone (GBL, 750 mg/kg i.p.) or saline for control animals 15 minutes later, and finally with NSD-1015 (100 mg/kg i.p.) 5 minutes after the administration of GBL. Thirty minutes after the administration of NSD-1015, animals are sacrificed, brains are removed, and striatae are isolated, then frozen at -70° C. until deproteinization, extraction and analysis. The ED50 (dose at which the DOPA accumulation is inhibited by 50%) values are determined by plotting the percent inhibition of DOPA accumulation versus log10 of the dose of test compound administered. The same method is also applicable to oral administration of the test compounds.

[2] = biological target: presynaptic dopamine receptor; test: 3H-ADTN presynaptic dopamine receptor binding assay (displacement of 3H-ADTN from calf caudate nucleus membranes); details: inhibition of specific binding of 0.2 nM 3H-ADTN by 50%, 60 min, 25° C.
Experimental: The presynaptic dopamine receptor binding properties indicative of the presynaptic dopamine receptor regulatory, e.g. agonistic activity, of the compounds of the invention can be determined in the dopamine binding assay in vitro by the following method involving the displacement of the dopamine agonist 2-amino-6,7-dihydroxy-1,2,3,4-tetrahydronaphthalene (^3 H-ADTN) from membranes of calf-caudate nucleus.
In the binding assay, triplicate 2 ml samples (equivalent to 5 mg/ml of brain tissue) of the calf brain caudate nucleus membrane suspension are incubated for 60 minutes at 25° C. with 0.2 nM ^3 H-ADTN without or in the presence of various concentrations of test compound in solvent. The reaction is terminated by filtering with 5 ml of cold 50 mM Tris-HCl buffer pH 7.7. The filters are placed in scintillation vials with 5 ml of scintillation solution, disrupted by vigorous mechanical shaking for 90 minutes, and counted for radioactivity.
The IC50 values which represent the concentration of test compounds required to inhibit the specific binding of 0.2 nM ^3 H-ADTN by 50% are determined graphically.

| Compound | ED50 in the GBL model ([1]; i.p.) | ED50 in the GBL model ([1]; p.o.) [mg/kg] | IC50 [2] [µM] |
| --- | --- | --- | --- |
| CCCN(CCC)C1CSc2sccc2C1 (stereo not drawn) [5-dipropylamino-5,6-dihydro-4H-thieno[2,3-b]thiopyran] | about 2.6 mg/kg | ~5.6 |  |
| CCCN(CCC)C1CSc2sccc2C1 (stereo not drawn) [N,N-dipropyl-5,6-dihydro-4H-thieno[2,3-b]thiopyran-5-amine hydrochloride] |  |  | ~0.15 |
